Assay results taken from patent US20130053435A1, “Methods of Treating Alcohol Intoxication, Alcohol Use Disorders and Alcohol Abuse Which Comprises the Administration of Dihydromyricetin” (priority 2011, published 2013).
Several values for one entry are separate records, joined by “and”; a condition that tells them apart may be missing. Equal entries are not always repeated. Where two headings read alike, the source gives them in different places.

Legend:
GABAARs [1] = system: T1, GABAARs; experiment: Whole-cell patch-clamp, cultured hippocampal neurons, acute drug application; format: cell-based, rat; settings: DHM 0.3 and 1 μM co-applied with GABA (b110 prints 1 M)
T1 construct: other: in the presence of 60 mM EtOH, rat hippocampal; shift of the GABA concentration-response curve
Method: (§1) Hippocampal neurons from embryonic day 18 rats were prepared by papain dissociation (Worthington Biochemical, Lakewood, N.J.) and cultured in neurobasal medium and B27 supplement (Invitrogen). Cultures were kept at 37° C. in a 5% CO2 humidified incubator as described previously. See Shen, Y., et al. (2011) Mol Pharmacol 79:432-442.
(§2) Hippocampal neurons from embryonic day 18 SD rats were prepared by papain dissociation (Worthington Biochemical, Lakewood, N.J.) and cultured in neurobasal medium (Invitrogen) and B27 supplement as previously reported. See Stowell J N and Craig A M (1999) Neuron 22(3):525-536. Briefly, embryos were removed from maternal rats anesthetized with isoflurane and euthanized by decapitation. Hippocampus were dissected and placed in Ca^2+- and Mg^2+-free HEPES-buffered Hank's buffered salt solution (pH 7.45). Tissues were dissociated by papain digestion followed by trituration through a Pasteur pipette and papain inhibitor treatment. Cells were pelleted and resuspended in neurobasal medium containing 2% B27 serum-free supplement, 100 U/ml penicillin, 100 μg/ml streptomycin, 0.5 mM glutamine (all from Invitrogen), and 10 μM glutamate (Sigma).
(§3) Dissociated neurons were then plated at a density of 0.3×10^5 cells/cm^2 onto 12 mm round coverslips in 24-well plates (for patch-clamp recording) and/or at a density of 0.5×10^5 cells/cm^2 in 6-well plates (for Western blot and biotinylation assays) coated with poly-D-lysine (Sigma, 50 μg/ml). Cultures were kept at 37° C. in a 5% CO2 humidified incubator. Thereafter, one third to half of the medium was replaced twice a week with neurobasal culture medium containing 2% B27 supplement, and 0.5 mM glutamine.
(§4) Control neurons were treated with corresponding vehicle as same procedure as EtOH-treated neurons. The concentration of 60 mM EtOH was selected in view of prior experiments. See Liang J et al (2007). Specifically, the concentration of 60 mM EtOH used to treat cultured neurons was chosen to match blood levels measured in adult rats after intoxication with gavage of 5 g/kg, which produced about 60 mM blood peak plasma [EtOH] lasting for about 2 to 3 hr and induced significant plasticity in GABAARs and tolerance.
(§5) Then, immediately before electrophysiological recording, cells grown on coverslips were transferred to a perfusion chamber (Warner Instruments) and visualized with an inverted microscope (TE200, Nikon). Whole-cell patch-clamp recordings were obtained from cultured neurons under voltage-clamp mode at room temperature (22-25° C.), at a holding potential of −70 mV. Cells were perfused with an extracellular solution (137 mM NaCl, 5 mM KCl, 2 mM CaCl2, 1 mM MgCl2, 20 mM glucose and 10 mM HEPES (310-320 Osm, pH adjusted to 7.40 with NaOH)). Glass pipettes were filled with the same internal solution as that in slice recordings, with an input resistance of 4-7 MΩ. GABAAR-mediated mIPSCs were recorded using the same pharmacological method as mentioned above. […] Electrical signals were amplified using a Multiclamp 200 B amplifier (Molecular Devices, USA). After establishing the whole-cell configuration, at least 10 min were allowed to elapse before the application of drug to allow the membrane patch to stabilize and exchange of ions between the recording electrode and the cytosol to occur. Data were acquired with pClamp software (Version 10.0, Molecular Devices, USA), digitized at 20 kHz (Digidata 1440A, Molecular Devices), and analyzed using the Clampfit software (Version 10.0, Molecular Devices) and the Mini Analysis Program (versions 6.0.7, Synaptosoft, Decatur, Ga.) using methods known in the art. See Hamann M, et al. (2002) Neuron 33(4):625-633; Stell B M and Mody I (2002) J Neurosci 22(10): RC223; and Liang (2007).

GABAARs [2] = system: T2, GABAARs; experiment: as above; format: cell-based, rat
T2 construct: DHM-enhanced Itonic; EC50 on GABAAR-mediated Itonic; other: control (vehicle) cultured neurons, DIV14; other: cultured neurons with EtOH exposure/withdrawal (60 mM, 30 min, 24 hr); EtOH-potentiated Itonic; GABAAR-mediated Ito
Method: as §1, §2, §3, §4, §5

GABAARs [3] = system: T3, GABAARs; experiment: as above; format: cell-based, rat
T3 construct: DHM-enhanced mIPSCs; other: control (vehicle) cultured neurons, DIV14; other: cultured neurons with EtOH exposure/withdrawal (60 mM, 30 min, 24 hr); EtOH-potentiated mIPSCs; effect on post-synaptic currents (mIPSCs); other: comparative experiments, rat hippocampal slices
Method: as §1, §2, §3, §4, §5

[4] = system: PTZ-induced seizures in rats; experiment: PTZ-induced seizures after EtOH withdrawal; format: in vivo, rat; settings: for PTZ-induced seizure duration: FIG. 12C
Method: Pentylenetetrazol (PTZ)-induced seizures were also measured in rats. […] PTZ dose used in this study (42 mg/kg in saline) was determined as the dose that induced seizures in 75% naïve rats. Briefly, after i.p. injection of PTZ, the time to onset and the duration of tonic-clonic seizures was determined as described previously. The researchers who conducted the animal behavior experiments were blind to treatment groups. Animals were used once only for any determination.
(§6) 48 hr after injection, rats were sub-divided into 3 groups to measure signs of EtOH withdrawal.
As described herein, hyperexcitability was assayed with PTZ-induced seizures duration (FIG. 12C). PTZ induced 0.9±0.2 min seizures in subjects of the vehicle group and 6.5±1.1 min seizures in subjects of the EtOH group.

[5] = system: EtOH withdrawal-induced tolerance in rats; experiment: EtOH withdrawal-induced tolerance measured by acute EtOH-induced LORR; format: in vivo, rat; settings: for LORR duration after 48 hr withdrawal: test EtOH 3 g/kg i.p.; for acute EtOH-induced LORR after 48 hr withdrawal: FIG. 12B
Method: See Kakihana R, et al. (1966) Science 154(756):1574-1575). […] LORR duration ended when the animal was able to flip over three times in 30 s. LORR assays were blindly performed. LORR durations were reported as mean (min)±SEM.
After a 48 hr withdrawal period, EtOH-induced LORR assays (EtOH, 3 g/kg, i.p.) were performed.
as §6
Tolerance to EtOH was measured with acute EtOH-induced LORR (in minutes, FIG. 12B). EtOH induced 63.6±7.0 LORR in the vehicle group subjects as compared to 10.8±3.8 LORR in EtOH group subjects.

For `O=C1c2c(O)cc(O)cc2O[C@H](c2cc(O)c(O)c(O)c2)[C@H]1O` [DHM, (2R,3R)-3,5,7-trihydroxy-2-(3,4,5-trihydroxyphenyl)-2,3-dihydrochromen-4-one], which “shift of the GABA concentration-response curve” value (GABAARs [1]) is on record?
The value was “left shift”.

What about the Itonic (GABAARs [2]; 0.3 μM DHM, cultured hippocampal neurons) of the same compound?
Its Itonic is 21.0±2.3 pA.

And the Itonic (GABAARs [2]; 1 μM DHM, cultured hippocampal neurons DIV13-14)?
Its Itonic is 194.9±13.6 % of control.

What about the EC50 (GABAARs [2]; control (vehicle) cultured neurons, DIV14, read-out: EC50 on GABAAR-mediated Itonic) of the same compound?
Its EC50 is roughly 200 nM.

What about the EC50 (GABAARs [2]; cultured neurons with EtOH exposure/withdrawal (60 mM, 30 min, 24 hr), read-out: EC50 on Itonic) of the same compound?
Its EC50 is ~200 nM and ~300 nM.

And the “mIPSCs (area)” value (GABAARs [3]; 1 μM DHM, cultured hippocampal neurons)?
Its value is 181.8±9.2 % of control and 128.2±8.3 % of control.

And the EC50 (GABAARs [3]; control (vehicle) cultured neurons, DIV14, read-out: EC50 on mIPSCs)?
Its EC50 is ~200 nM and ~300 nM.

And the PTZ-seizure duration ([4]; 24 hr after DHM 1 mg/kg i.p. alone)?
Its PTZ-seizure duration is “did not induce any significant or observable changes in seizure duration”.

What about the PTZ seizure incidence ([4]; 24 hr withdrawal from DHM+EtOH) of the same compound?
The PTZ seizure incidence was 85%.

What about the PTZ-seizure duration ([4]; 24 hr withdrawal from DHM+EtOH (1 mg/kg+3 g/kg, i.p.), PTZ 42 mg/kg) of the same compound?
The PTZ-seizure duration was 0.9 ± 0.2 min.

And the PTZ-induced seizure duration ([4]; 48 hr withdrawal, EtOH+DHM group)?
Its PTZ-induced seizure duration is 1.7 ± 0.8 min.

What about the PTZ-induced seizure duration ([4]; 48 hr, DHM group) of the same compound?
The PTZ-induced seizure duration was 0.6 ± 0.4 min.

What about the “EtOH intoxication/withdrawal-induced increases in PTZ-induced seizure duration and incidence, female rats” value ([4]; female rats, co-administration of DHM+EtOH) of the same compound?
The value was “inhibits, reduces and/or prevents”.

What about the “LORR duration after 48 hr withdrawal” value ([5]; DHM 1 mg/kg i.p. alone) of the same compound?
Its value is 61 ± 4 min.

And the “acute EtOH-induced LORR after 48 hr withdrawal” value ([5]; DHM group)?
The value was 65.6 ± 8.4 min.

What about the “acute EtOH-induced LORR after 48 hr withdrawal” value ([5]; EtOH+DHM (1 mg/kg) group) of the same compound?
The value was 61.0 ± 3.8 min.

And the “LORR duration after 48 hr withdrawal” value ([5]; i.p. EtOH 3 g/kg + DHM 1 mg/kg 30 min after EtOH)?
Its value is 61 ± 4 min.
